Reference: patent US20080081781A1, “Methods and compositions for the treatment of metabolic syndrome” (priority 2004, published 2008)

Tests used:
[1] = tested on: high fat high cholesterol (HFHC) diet rats; assay: Combination treatment with berberine and simvastatin in HFHC diet rats (Table 8); format: in vivo, rat; details: oral, after 25 days, daily dose berberine 100 mg/kg, simvastatin 25 mg/kg, combination 100 + 25, average ± standard error
Description: Rats were fed a high fat high cholesterol (HFHC) diet for 10 days, and then divided into groups of seven. The rats were then administered berberine or simvastatin, or a combination of berberine and simvastatin orally for 25 days. After 25 days, serum cholesterol, triglyceride and LDL-c levels were measured. […] The combination of simvastatin, and berberine lowered the cholesterol, triglyceride and LDL-c levels further than either alone.

LDLR mRNA 3'UTR = assay: Luc-LDLR 3'UTR chimeric transcripts in transfected HepG2 cells; format: cell-based, human; details: transfected HepG2, berberine eight hours
Source text: Three consecutive fragments of LDLR 3 ′UTR were inserted into a cytomegalovirus promoter driven Luc plasmid (pLuc) at the 3′ end of the Luc coding sequence before the SV40 polyadenylation signal. The wild-type Luc reporter plasmid pLuc was constructed by insertion of the Luc cDNA into the HindIII and Xba sites of pcDNA3.1/Zeo(+). Addition of the LDLR 3/UTR was accomplished by PCR amplifying different regions of the 2.5 kb 3′UTR of LDLR mRNA using XbaI-tailed primers and pLDLR3 as the template. The wild type pLuc and the chimeric plasmids pLuc-UTR-2, UTR-3 and UTR-4 were transfected into HepG2 cells (FIG. 11). Cells seeded in culture dishes were transiently transfected with the chimeric plasmids. Twenty-four hours after transfection, cells were trypsinized and reseeded equally into two dishes for each plasmid transfection. After overnight incubation, one dish was treated with dimethylsulfoxide as the solvent control and another was treated with berberine for eight hours. […]
To create ARE deletion constructs, an Apa site at nt 3,384 was generated for deleting ARE3, and an Apa1 site at nt 3,334 for deleting ARE2 by site-directed mutagenesis using pLuc/UTR-2 as the template. […] The effects of berberine on the chimeric Luc transcripts were determined by measuring Luc mRNA using a quantitative real-time RT-PCR assay. […]

rat model subjects = assay: Combinatorial anti-hyperlipidemia efficacy of berberine and lovastatin in rats (Table 9); format: in vivo
InsR mRNA = assay: Rat liver InsR and LDLR mRNA (quantitative real time RT-PCR); format: in vivo; details: rats, 14 days
Description: The livers were dissected and stored in liquid nitrogen for RNA extraction, real-time RT-PCR and PKC activity assay. Total blood samples were also collected to assay fasting blood glucose and serum insulin levels. The insulin levels were analyzed using radio-immunoassay (Linco Research, St Charles, Mo.). The insulin sensitivity indexes (ISI) were calculated according to the formula: 10^4/(fasting serum insulin X fasting blood glucose) (Hanson, Am. J. Epidemiol. 15 1(2), 190-198 (2000)). The insulin level and ISI of normal rats were also determined for comparison. […] It also elevated the fasting blood glucose from 7 to 12.8 mmol/L (P<0.001).
Liver mRNA extracts were used for quantitative real time RT-PCR assay. Total cellular RNA was reverse-transcribed into cDNA using the Reverse Transcription System (Promega, Madison, Wis.). Quantitative real-time PCR were performed with these cDNA using the Applied Biosystems 7500 Real-Time PCR System and TaqMan® Universal PCR Master Mix (Applied Biosystems, Foster City, Calif.). […] 2.5 μl of cDNA sample, 12.5 μl of Universal PCR Master Mix, and 1.25 μl of TaqMan® Gene Expression Assay reagent were mixed in a 25 μl reaction system, and the comparative CT method was used in relative gene quantification using the TaqMan® SDS analysis software. […]

InsR gene promoter = assay: InsR promoter activity, pGL3-1.5kIRP transfected HepG2 cells; format: cell-based, human; details: pGL3-1.5kIRP transfected HepG2, 10 μg/ml, 8 h
Description: The InsR promoter luciferase gene fusion plasmid (pGL3-1.5kIRP) was kindly provided by Dr. Araki E of the Graduate School of Medical Sciences, Kumamoto University, Honjo, Kumamoto, Japan.
After overnight incubation, the cells were treated with DMSO as the solvent control or with 0, 1, 2.5, 5, 7.5 and 10 μg/ml berberine for 8 h. Cell lysates were prepared and luciferase activities were measured using the Luciferase Reporter Gene Assay (Roche Applied Science). The experiment was repeated 4 times.

LDLR mRNA = assay: Screen of 700 compounds from Chinese herbs for LDLR mRNA in HepG2 cells (semi-quantitative RT-PCR); format: cell-based, human; details: HepG2, 24 hours
Description: In exemplary experiments, cells from a human hepatoma-derived cell line, HepG2, were treated for 24 hours with 700 compounds isolated from Chinese herbs. RNA was then isolated from the cells and analysis of LDLR mRNA was determined using semi-quantitative RT-PCR assays. […] Treating HepG2 cells cultured in medium containing 0.5% lipoprotein-depleted fetal bovine serum or serum supplemented with sterols and berberine caused time dependent increases in the expression of LDLR mRNA.

[2] = high fat diet rats treated for 15 days, berberine 80 mg/kg/day, lovastatin 10 mg/kg/day
[3] = high fat diet rats, Day 0 (untreated rats, baseline)

For `COc1ccc2cc3[n+](cc2c1OC)CCc1cc2c(cc1-3)OCO2` [berberine], the LDL-c [1] was 1.2 ± 0.2 mmol/L, the “Total Cholesterol” value [1] was 3.8 ± 0.5 mmol/L and the Triglyceride [1] was 2.1 ± 0.3 mmol/L. For the same molecule, the “expressions of LucUTR-3 and Luc-UTR-4 or the wild type” value (LDLR mRNA 3'UTR) was “without affecting”, the “increase of level of Luc-UTR-2 mRNA” value (LDLR mRNA 3'UTR) was 2.5 fold and the “Cholesterol Day 15” value (rat model subjects; [2]) was 2.75 mmol/L. For the same molecule, the “LDL Day 15” value (rat model subjects; [2]) was 1.7 mmol/L, the “Cholesterol Day 0” value (rat model subjects; [3]) was 3.65 mmol/L and the “LDL Day 0” value (rat model subjects; [3]) was 2.25 mmol/L. The “increase in InsR mRNA in the livers” value (InsR mRNA; 75 mg/kg/day) was 1.8 fold, the “increase in InsR mRNA in the livers” value (InsR mRNA; 150 mg/kg/day) was 2.3 fold and the “elevation of Luc mRNA level” value (InsR gene promoter) was 2.5 fold. The “LDLR expression among 700 compounds tested” value (LDLR mRNA) was “greatest increase in LDLR expression”.
